This is an account of results in patent US20100035866A1, “NOVEL SUBSTITUTED-1, 1-DIOXO-BENZO[1,2,4]THIADIAZIN-3ONES, PREPARATION METHOD THEREOF, AND PHARMACEUTICAL COMPOSITION CONTAINING THE SAME” (KOREA RESEARCH INSTITUTE OF CHEMICAL TECHNOLOGY, priority 2006, published 2010).

Data set [1] addresses T1, 5-HT6 receptors (Homo sapiens, UniProt P50406). The conditions noted are these: antipsychotics, Roth et al. 1994; cited from earlier work.
The subject of data set [2] is rats. Particulars: cited from earlier work.
For data set [3] the following is noted: frontal cortex and dorsal hippocampus; cited from earlier work.
The subject of data set [4] is rat. The conditions noted are these: earlier finding; cited from earlier work.
The subject of data set [5] is rats. Put plainly: Apomorphine-induced disruption of prepulse inhibition (PPI) of acoustic startle. Particulars: for reversal of disruption of PPI by apomorphine: pretreatment i.p. 30 min before apomorphine 2 mg/kg.
In data set [6] the target is T2, 5-HT1a (Homo sapiens, UniProt P08908).
T2 construct: purchased Euroscreen/BioSignal Packard Inc
T2 sequence (P08908 1-422): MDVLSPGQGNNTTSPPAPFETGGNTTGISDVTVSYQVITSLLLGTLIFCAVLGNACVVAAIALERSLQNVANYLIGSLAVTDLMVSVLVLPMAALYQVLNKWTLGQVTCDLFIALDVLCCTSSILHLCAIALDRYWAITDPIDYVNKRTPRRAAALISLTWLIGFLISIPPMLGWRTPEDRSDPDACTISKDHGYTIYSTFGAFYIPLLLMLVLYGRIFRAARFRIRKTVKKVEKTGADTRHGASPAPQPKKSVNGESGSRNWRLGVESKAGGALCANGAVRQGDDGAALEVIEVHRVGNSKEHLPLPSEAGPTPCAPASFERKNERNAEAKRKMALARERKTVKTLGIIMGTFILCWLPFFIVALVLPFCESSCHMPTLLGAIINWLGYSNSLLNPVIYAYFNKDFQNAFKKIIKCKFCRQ
As to the kind of experiment: Radioligand binding, 5-HT receptor family: 5-HT1a ([3H]8-OH-DPAT). The conditions noted are these: CHO-K1 human recombinant receptor, [3H]8-OH-DPAT 0.5 nM; read-out: Binding affinity, IC50 (nM), 5-HT1a.

The target of data set [7] is T3, 5-HT2a (Homo sapiens, UniProt P28223).
T3 construct: purchased Euroscreen/BioSignal Packard Inc
T3 sequence (P28223 whole entry): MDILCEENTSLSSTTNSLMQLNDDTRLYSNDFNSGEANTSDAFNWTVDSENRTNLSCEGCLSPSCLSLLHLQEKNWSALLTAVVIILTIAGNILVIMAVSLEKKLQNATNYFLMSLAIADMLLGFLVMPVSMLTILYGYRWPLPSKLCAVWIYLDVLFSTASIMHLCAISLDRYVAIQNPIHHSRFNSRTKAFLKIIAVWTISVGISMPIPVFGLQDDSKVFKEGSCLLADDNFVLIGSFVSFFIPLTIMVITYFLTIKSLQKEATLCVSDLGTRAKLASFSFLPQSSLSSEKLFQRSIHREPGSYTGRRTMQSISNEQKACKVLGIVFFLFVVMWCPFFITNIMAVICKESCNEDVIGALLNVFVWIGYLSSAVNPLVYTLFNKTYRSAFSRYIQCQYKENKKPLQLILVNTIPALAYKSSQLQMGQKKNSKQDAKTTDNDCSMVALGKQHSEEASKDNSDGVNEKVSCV
As to the kind of experiment: Radioligand binding, 5-HT receptor family: 5-HT2a ([3H]Ketanserin). The conditions noted are these: CHO-K1 human recombinant receptor, [3H]Ketanserin 1 nM; read-out: Binding affinity, IC50 (nM), 5-HT2a.

The target of data set [8] is T4, 5-HT2c (Homo sapiens, UniProt P28335).
T4 construct: purchased Euroscreen/BioSignal Packard Inc
T4 sequence (P28335 33-458): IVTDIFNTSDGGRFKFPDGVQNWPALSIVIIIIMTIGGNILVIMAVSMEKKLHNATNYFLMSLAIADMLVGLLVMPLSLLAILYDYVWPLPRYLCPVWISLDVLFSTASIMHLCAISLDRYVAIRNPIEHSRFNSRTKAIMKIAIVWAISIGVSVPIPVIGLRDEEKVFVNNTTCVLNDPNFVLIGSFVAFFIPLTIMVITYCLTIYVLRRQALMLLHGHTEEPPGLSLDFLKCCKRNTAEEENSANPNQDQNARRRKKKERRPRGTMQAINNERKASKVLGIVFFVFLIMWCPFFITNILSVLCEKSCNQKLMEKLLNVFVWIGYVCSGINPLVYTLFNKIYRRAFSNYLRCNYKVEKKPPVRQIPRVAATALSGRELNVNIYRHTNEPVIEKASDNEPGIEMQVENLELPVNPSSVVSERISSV
As to the kind of experiment: Radioligand binding, 5-HT receptor family: 5-HT2c ([3H]Mesulergine). Particulars: CHO-K1 human recombinant receptor, [3H]Mesulergine 1 nM; read-out: Binding affinity, IC50 (nM), 5-HT2c.

In data set [9] the target is T5, 5-HT7 (Homo sapiens, UniProt P34969).
T5 construct: purchased Euroscreen/BioSignal Packard Inc
T5 sequence (P34969 whole entry): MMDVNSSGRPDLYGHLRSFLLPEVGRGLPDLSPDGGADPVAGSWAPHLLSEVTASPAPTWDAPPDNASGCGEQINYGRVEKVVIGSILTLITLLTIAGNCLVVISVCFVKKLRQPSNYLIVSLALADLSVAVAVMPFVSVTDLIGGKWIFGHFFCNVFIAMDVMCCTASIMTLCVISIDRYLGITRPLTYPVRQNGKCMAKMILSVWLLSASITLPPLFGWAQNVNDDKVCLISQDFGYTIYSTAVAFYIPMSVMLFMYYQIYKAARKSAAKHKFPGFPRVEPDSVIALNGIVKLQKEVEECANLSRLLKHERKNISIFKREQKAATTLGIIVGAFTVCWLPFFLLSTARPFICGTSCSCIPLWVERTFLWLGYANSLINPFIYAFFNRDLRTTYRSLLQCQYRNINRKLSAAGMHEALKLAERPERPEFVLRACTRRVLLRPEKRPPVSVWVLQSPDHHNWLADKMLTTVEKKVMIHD
As to the kind of experiment: Radioligand binding, 5-HT receptor family: 5-HT7 ([3H]LSD). Particulars: CHO-K1 human recombinant receptor, [3H]LSD 3 nM; read-out: Binding affinity, IC50 (nM), 5-HT7. A digest of the protocol:
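Per manufacturer method: commercial membranes incubated with radioligand and test compound, bound label counted.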

Data set [10] deals with D1 (Homo sapiens, UniProt P21728). As to the kind of experiment: Dopamine receptor family binding: D1. The conditions noted are these: read-out: Binding affinity, IC50 (nM), D1.
Sequence of D1 (P21728 whole entry): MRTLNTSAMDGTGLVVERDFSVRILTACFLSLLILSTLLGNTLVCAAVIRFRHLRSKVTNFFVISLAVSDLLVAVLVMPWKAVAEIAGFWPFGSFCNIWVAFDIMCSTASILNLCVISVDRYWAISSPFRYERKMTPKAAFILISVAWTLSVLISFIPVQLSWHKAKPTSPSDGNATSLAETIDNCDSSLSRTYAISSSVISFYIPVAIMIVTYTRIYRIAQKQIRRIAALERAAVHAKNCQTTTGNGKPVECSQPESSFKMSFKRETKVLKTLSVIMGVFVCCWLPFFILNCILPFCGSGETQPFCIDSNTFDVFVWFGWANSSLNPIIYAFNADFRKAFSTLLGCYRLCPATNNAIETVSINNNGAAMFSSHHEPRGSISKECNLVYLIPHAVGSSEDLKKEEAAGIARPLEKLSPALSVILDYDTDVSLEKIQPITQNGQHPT
The target of data set [11] is T6, hD2L receptor (Homo sapiens, UniProt P14416).
T6 construct: purchased BioSignal Packard Inc., Montreal, Canada
T6 sequence (P14416 whole entry): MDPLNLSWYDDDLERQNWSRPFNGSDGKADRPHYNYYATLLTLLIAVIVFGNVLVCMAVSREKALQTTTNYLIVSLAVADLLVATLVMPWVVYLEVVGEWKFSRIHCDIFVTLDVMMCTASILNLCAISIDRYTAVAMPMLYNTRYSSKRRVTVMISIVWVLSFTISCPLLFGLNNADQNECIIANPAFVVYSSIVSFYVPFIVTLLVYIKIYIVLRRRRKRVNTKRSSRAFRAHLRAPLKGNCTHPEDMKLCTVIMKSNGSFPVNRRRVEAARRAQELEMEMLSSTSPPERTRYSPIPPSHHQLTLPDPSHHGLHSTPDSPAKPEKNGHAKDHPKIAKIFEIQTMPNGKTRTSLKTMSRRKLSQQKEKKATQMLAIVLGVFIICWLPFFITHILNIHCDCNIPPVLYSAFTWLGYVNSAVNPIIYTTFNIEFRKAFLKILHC
As to the kind of experiment: Dopamine receptor family binding: D2 ([3H]spiperone). The conditions noted are these: [3H]spiperone 1 nM; read-out: Binding affinity, IC50 (nM), D2. In outline:
(§1)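 Competition binding on human receptor membranes: D2L with [3H]spiperone 1 nM in 50 mM Tris-HCl pH 7.4, 10 mM MgCl2, 1 mM EDTA; D4.2 with [3H]YM-09151-2 0.06 nM in Tris-HCl pH 7.4 with MgCl2, EDTA, KCl, CaCl2. 7-8 concentrations in duplicate, three assays; IC50 by nonlinear regression.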

Data set [12] concerns the target T7, hD3 receptor (Homo sapiens, UniProt P35462).
T7 construct: purchased BioSignal Packard Inc., Montreal, Canada
Put plainly: Dopamine receptor family binding: D3 ([3H]spiperone). Particulars: [3H]spiperone 1 nM; read-out: Binding affinity, IC50 (nM), D3.

Data set [13] concerns the target T8, hD4.2 receptor (Homo sapiens, UniProt P21917, DEL265-296).
T8 construct: purchased BioSignal Packard Inc., Montreal, Canada
T8 sequence (P21917 with tags, fused parts or gaps DEL265-296): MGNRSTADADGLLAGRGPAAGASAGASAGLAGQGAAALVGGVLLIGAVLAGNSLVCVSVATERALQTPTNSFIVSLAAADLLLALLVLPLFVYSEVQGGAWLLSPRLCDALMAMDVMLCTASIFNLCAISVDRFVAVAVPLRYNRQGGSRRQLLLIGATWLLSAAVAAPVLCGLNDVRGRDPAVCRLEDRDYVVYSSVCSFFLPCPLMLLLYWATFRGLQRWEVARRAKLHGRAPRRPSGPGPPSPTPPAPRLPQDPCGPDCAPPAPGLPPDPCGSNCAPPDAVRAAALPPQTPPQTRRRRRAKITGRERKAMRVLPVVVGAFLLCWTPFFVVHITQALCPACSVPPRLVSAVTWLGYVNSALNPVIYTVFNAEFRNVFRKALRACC
Put plainly: Dopamine receptor family binding: D4 ([3H]YM-09151-2). The conditions noted are these: [3H]YM-09151-2 0.06 nM; read-out: Binding affinity, IC50 (nM), D4. A digest of the protocol:
as §1

Data set [14] concerns HeLa cells transfected with the human 5-HT6 receptor. Put plainly: Cytotoxicity in HeLa cells of the cAMP assay. Format: cell-based. The conditions noted are these: at the concentrations tested (0.001-10 μM). (Changes in cAMP serve as a functional read-out for many G protein-coupled receptors.)
Data set [15] has as its system mice. Put plainly: Rotarod deficit. Particulars: mouse, in vivo. As for the experimental part: The mouse was placed on a 1 inch diameter knurled plastic rod rotating at 6 rpm (Ugo-Basile, Milano, Italy), and the rotarod deficit (%) was obtained by counting the number of animals fallen from the rotating rod within 1 min (Dunham et al., 1957) at 30, 60, 90 and 120 min after the injection of test compound.
A general note: The rotarod test checks motor coordination on a turning rod.

The target in data set [16] is Human serotonin 5-HT6 receptor (Homo sapiens, UniProt P50406). Put plainly: [3H]LSD binding assay on cloned 5-HT6 receptor. The conditions noted are these: IC50 (nM).
Sequence of Human serotonin 5-HT6 receptor (P50406 whole entry): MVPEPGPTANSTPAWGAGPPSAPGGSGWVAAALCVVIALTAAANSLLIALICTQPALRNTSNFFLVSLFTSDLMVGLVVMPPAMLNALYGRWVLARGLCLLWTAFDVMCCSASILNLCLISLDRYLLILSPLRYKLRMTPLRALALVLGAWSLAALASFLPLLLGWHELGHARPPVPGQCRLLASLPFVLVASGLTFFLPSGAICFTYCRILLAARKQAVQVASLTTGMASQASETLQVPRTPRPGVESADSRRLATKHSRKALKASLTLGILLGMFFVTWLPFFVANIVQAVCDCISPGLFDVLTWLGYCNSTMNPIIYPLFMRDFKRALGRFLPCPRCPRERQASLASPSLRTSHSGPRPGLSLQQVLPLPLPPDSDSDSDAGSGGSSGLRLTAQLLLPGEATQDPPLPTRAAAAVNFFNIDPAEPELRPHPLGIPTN
Data set [17] concerns the target T1, 5-HT6 receptors. Put plainly: Adenylyl cyclase activity (cAMP accumulation) in HeLa cells transfected with human 5-HT6 receptor.
Data set [18] deals with rats. Particulars: cited from earlier work. The source holds these as a separate data set.
In data set [19] the target is T1, 5-HT6 receptors. Particulars: human 5-HT6 receptors, Glennon et al.; cited from earlier work.
The mark [20] stands for this setting: HeLa, read-out: inhibition of 0.3 μM serotonin (5-HT)-induced increase in cAMP levels.

T1 sequence (P50406 whole entry): as above
T7 sequence (P35462 whole entry): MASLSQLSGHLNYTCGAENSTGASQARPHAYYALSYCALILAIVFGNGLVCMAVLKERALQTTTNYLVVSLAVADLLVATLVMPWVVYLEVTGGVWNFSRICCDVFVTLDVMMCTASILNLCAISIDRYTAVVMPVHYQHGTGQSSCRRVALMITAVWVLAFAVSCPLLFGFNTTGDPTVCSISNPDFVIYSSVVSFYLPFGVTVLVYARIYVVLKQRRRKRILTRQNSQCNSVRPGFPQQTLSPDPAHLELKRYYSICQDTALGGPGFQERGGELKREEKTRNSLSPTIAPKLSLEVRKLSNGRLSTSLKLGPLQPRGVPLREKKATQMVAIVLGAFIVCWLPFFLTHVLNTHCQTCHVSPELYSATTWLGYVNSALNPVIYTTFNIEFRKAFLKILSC

Take `CN(C)CC/C=C1/c2ccccc2Sc2ccc(Cl)cc21` [chlorprothixene]: the “binding affinity at 5-HT6 receptors (in words)” value in data set [1] is listed as “high affinity”.

`COc1ccc(NS(=O)(=O)c2sc3ccc(Cl)cc3c2C)cc1N1CCNCC1` [SB-271046, reference compound]: the “retention of a previously learned task in water maze” value in [2] is recorded as “significant improvement”. Also, in [3], the extracellular glutamate levels entry was “increased extracellular glutamate levels in frontal cortex and dorsal hippocampus by several fold”. In addition, the anticonvulsant activity entry in [4] is given as “possess anticonvulsant activity”. Besides, the “reversal of disruption of PPI by apomorphine” value in [5] (rats, i.p.) was “did not reverse”.

For the compound `CN(C)CCCN1c2ccccc2Sc2ccc(Cl)cc21` [chlorpromazine], the “binding affinity at 5-HT6 receptors (in words)” value in data set [1] is “high affinity”.

What is called IC50 is the concentration at which inhibition is half-maximal. As usually defined, the melting point is the temperature of the solid-liquid transition. What is called inhibition is the share of the control response that was lost under treatment. For `O=C1N(Cc2ccccc2)c2cc(Cl)cc(N3CCNCC3)c2S(=O)(=O)N1Cc1ccccc1` [Example 44, 2,4-Dibenzyl-6-chloro-1,1-dioxo-8-piperazin-1-yl-1,4-dihydro-2H-1λ^6-benzo[1,2,4]thiadiazin-3-one], the melting point is 108 to 109 °C. Further, the IC50 in [6] came out at 5400 nM. In addition, in [7], the IC50 stood at 1160 nM. For the same compound, in [8], the IC50 is 1880 nM. Moreover, in data set [9], the IC50 is over 10000 nM. For the same compound, in data set [10], the IC50 was 6390 nM. Also, the IC50 in data set [11] is 667 nM. In addition, the IC50 in [12] worked out at 1210 nM. Also, the IC50 in data set [13] was over 10000 nM. In addition, the cytotoxicity entry in data set [14] is on record as “did not show any cytotoxicity”. Further, in data set [15], the “TD50 relative to effective doses obtained in the PPI test” value was “about 8 times” and the “rotarod ataxia / rotarod deficit (in words)” value is given as “moderate rotarod deficit”. For the same compound, the IC50 in data set [16] (Binding affinity, 5-HT6, Table 4) was found to be 1 nM. The IC50 in data set [16] (binding affinity to the 5-HT6 receptor, Table 2, 1.87 nM [3H]LSD, cloned human receptor membranes from Sf21 cells, 37° C. 60 min) was 0.9 nM. Also, the “effect on PPI of compound alone vs vehicle control” value in data set [5] (rats, 2.5, 5, 10 & 20 mg/kg, i.p., without apomorphine) was “no significant effect”. Also, the “mean startle amplitude vs apomorphine control group” value in data set [5] (rats, administered 30 min before apomorphine) is given as “no significant differences”. In addition, in data set [5] (rats, i.p.), the “reversal of disruption of PPI by apomorphine” value was “reversed significantly”. Half-maximal inhibition in [17] (IC50) was put at 67.8 nM. The “5-HT-induced increase in cAMP level inhibited (in words)” value in data set [17] (FIG. 1) is reported as “inhibited”. In data set [17] (setting [20]), the inhibition at 0.001 µM came to 0%, the inhibition at 0.01 µM is 8%, the inhibition at 0.1 µM was 63% and the inhibition at 1 µM was 100%. For the same compound, the inhibition at 10 µM in [17] (setting [20]) was determined as 100%.

In the case of `CNc1cc(NS(=O)(=O)c2ccc(N)cc2)nc(NC)n1` [Ro 04-6790], the anticonvulsant activity entry in data set [4] is given as “possess anticonvulsant activity”. Further, the food intake entry in [18] is on record as “decreased food intake”.

On to `COc1ccc2c(c1)c(CCN(C)C)cn2S(=O)(=O)c1ccccc1` [MS-245], for which, in data set [19], the “pA2, antagonist” value is recorded as 8.88.
